Test results: PMC4138103 (PLoS ONE, 2014)
Where two headings read alike, the source gives them in different places.

Test system: Sprague-Dawley rats
Assay: Hematology
Assay type: in vivo, Rattus norvegicus
Set-up: HCT, Hematocrit: unit not given here
Conditions: for Emax: Rattus norvegicus; for Basophils / Eosinophils / HB, Hemoglobin / HCT, Hematocrit / Lymphocytes / MCH, Mean corpuscular hemoglobin / MCHC, Mean corpuscular hemoglobin concentration / MCV, Mean corpuscular volume / MPV, Mean platelet volume / Monocytes / Neutrophils / PDW, Platelet distribution width / PLT, Platelet count / RBC, Red cell count / WBC, Leukocyte total count: group mean
Procedure: Basic blood picture analysis was carried out using Advia 120 analyzer (Bayer, later Siemens Diagnostic Division, Dublin, Ireland). This analysis includes red cell count (RBC), hemoglobin (HB), hematocrit (HCT), platelet count (PLT), leukocyte total count (WBC) and differential count as well as the calculated red cell and platelet parameters mean corpuscular volume (MCV), mean corpuscular hemoglobin (MCH), mean corpuscular hemoglobin concentration (MCHC), red cell distribution width - standard deviation (RDW-SD), platelet distribution width (PDW) and mean platelet volume (MPV). Blood cell counting is based on isovolumetric sphering and fixing the cells, stains and light scattering. Visual leukocyte differential counting was done after May-Grünwald-Giemsa staining.
Data were also analyzed using the BMD method, which is based on dose-response modeling of the full data set using a nested family of exponential and Hill models. The analyses were done on data of males and females combined, using sex as a covariate. […] In that case, different Critical Effect Doses (CEDs) and CEDs at the lowest bound of the confidence interval (CED-L) were generated for each sex. If no difference between sexes is detected, a CED and CED-Ls for the combined data is generated. However, this was also done if the curve fits are close, and separate analyses for males and females were then performed manually. CEDs and CED-Ls were calculated at the predefined Critical Effect Size (CES) of 5% (EFSA standard) or 10%.

[1] = F, CES 5%, model E2, adipose tissue concentration based
[2] = F, CES 5%, model E3, adipose tissue concentration based
[3] = F, CES 10%, model E2, adipose tissue concentration based
[4] = F, CES 10%, model E3, adipose tissue concentration based
[5] = M, CES 5%, model E4, adipose tissue concentration based
[6] = M, CES 10%, model E4, adipose tissue concentration based
[7] = females, total dose 3 mg/kg bw, N=5
[8] = females, total dose 10 mg/kg bw, N=5
[9] = females, total dose 30 mg/kg bw, N=5
[10] = females, total dose 100 mg/kg bw, N=5
[11] = females, total dose 300 mg/kg bw, N=5
[12] = females, total dose 1000 mg/kg bw, N=5
[13] = females, total dose 1000 mg/kg bw, N=5, p<0.01 vs. control
[14] = females, total dose 1700 mg/kg bw, N=5

Clc1cc(Cl)c(-c2cc(Cl)c(Cl)c(Cl)c2Cl)cc1Cl [PCB 180, 2,2′,3′,4,4′,5,5′-heptachlorobiphenyl]
CED, Hematocrit [1]: 5430 µg/g lipid
CED, Hemoglobin [1]: 4840 µg/g lipid
CED, Red blood cell count [1]: 4170 µg/g lipid
CED-L, Hematocrit [1]: 4178 µg/g lipid
CED-L, Hemoglobin [1]: 3889 µg/g lipid
CED-L, Red blood cell count [1]: 3327 µg/g lipid
CED, Red cell distribution width - SD [2]: 8370 µg/g lipid
CED-L, Red cell distribution width - SD [2]: 5756 µg/g lipid
CED, Hematocrit [3]: 11100 µg/g lipid
CED, Hemoglobin [3]: 9930 µg/g lipid
CED, Red blood cell count [3]: 8560 µg/g lipid
CED-L, Hematocrit [3]: 8582 µg/g lipid
CED-L, Hemoglobin [3]: 7989 µg/g lipid
CED-L, Red blood cell count [3]: 6834 µg/g lipid
CED, Red cell distribution width - SD [4]: 10700 µg/g lipid
CED-L, Red cell distribution width - SD [4]: 9281 µg/g lipid
CED, Hematocrit [5]: 601 µg/g lipid
CED, Hemoglobin [5]: 872 µg/g lipid
CED, Platelet count [5]: 156 µg/g lipid
CED, Red blood cell count [5]: 598 µg/g lipid
CED-L, Hematocrit [5]: 247 µg/g lipid
CED-L, Hemoglobin [5]: 227 µg/g lipid
CED-L, Platelet count [5]: 36.4 µg/g lipid
CED-L, Red blood cell count [5]: 337 µg/g lipid
CED, Hematocrit [6]: 2090 µg/g lipid
CED, Platelet count [6]: 539 µg/g lipid
CED, Red blood cell count [6]: 1890 µg/g lipid
Emax (Erythrocyte, F, model E2, controls vs high dose according to the fitted model, read-out: Maximum response, Red blood cell count): -13%
Emax (Erythrocyte, females, controls vs high dose, fitted model, read-out: Red blood cell count, Maximum response): -12.8%
Emax (Erythrocyte, males, controls vs high dose, fitted model, read-out: Red blood cell count, Maximum response): -12.5%
Emax (Erythrocyte, model E4, controls vs high dose according to the fitted model, read-out: Maximum response, Red blood cell count): -12.4%
Emax (F, model E2, controls vs high dose according to the fitted model, read-out: Maximum response, Hematocrit): -10.1%
Emax (F, model E2, controls vs high dose according to the fitted model, read-out: Maximum response, Hemoglobin): -11.3%
Emax (F, model E3, controls vs high dose according to the fitted model, read-out: Maximum response, Red cell distribution width - SD): 11.1%
Emax (Platelet, males, controls vs high dose, fitted model, read-out: Platelet count, Maximum response): 12%
Emax (Platelet, model E4, controls vs high dose according to the fitted model, read-out: Maximum response, Platelet count): 12%
Emax (females, controls vs high dose, fitted model, read-out: Hematocrit, Maximum response): -10%
Emax (females, controls vs high dose, fitted model, read-out: Hemoglobin, Maximum response): -11.1%
Emax (females, controls vs high dose, fitted model, read-out: Red cell distribution width - SD, Maximum response): 11.5%
Emax (males, controls vs high dose, fitted model, read-out: Hematocrit, Maximum response): -11.8%
Emax (males, controls vs high dose, fitted model, read-out: Hemoglobin, Maximum response): -8.6%
Emax (model E4, controls vs high dose according to the fitted model, read-out: Maximum response, Hematocrit): -11.7%
Emax (model E4, controls vs high dose according to the fitted model, read-out: Maximum response, Hemoglobin): -8.59%
Basophils [7]: 0.0%
Eosinophils [7]: 1.2%
HB, Hemoglobin [7]: 165 g/L
HCT, Hematocrit [7]: 0.44
Lymphocytes [7]: 88.4%
MCH, Mean corpuscular hemoglobin [7]: 23.1 pg
MCHC, Mean corpuscular hemoglobin concentration [7]: 371 g/L
MCV, Mean corpuscular volume [7]: 62.3 fL
MPV, Mean platelet volume [7]: 6.74 fL
Monocytes [7]: 2.6%
Neutrophils [7]: 7.8%
PDW, Platelet distribution width [7]: 7.26 fL
PLT, Platelet count [7]: 8.17e+11 L⁻¹
RBC, Red cell count [7]: 7.15e+12 L⁻¹
WBC, Leukocyte total count [7]: 1.422e+10 L⁻¹
Basophils [8]: 0.0%
Eosinophils [8]: 0.2%
HB, Hemoglobin [8]: 166 g/L
HCT, Hematocrit [8]: 0.45
Lymphocytes [8]: 92.0%
MCH, Mean corpuscular hemoglobin [8]: 23.0 pg
MCHC, Mean corpuscular hemoglobin concentration [8]: 372 g/L
MCV, Mean corpuscular volume [8]: 61.8 fL
MPV, Mean platelet volume [8]: 6.72 fL
Monocytes [8]: 2%
Neutrophils [8]: 5.8%
PDW, Platelet distribution width [8]: 7.20 fL
PLT, Platelet count [8]: 8.05e+11 L⁻¹
RBC, Red cell count [8]: 7.23e+12 L⁻¹
WBC, Leukocyte total count [8]: 1.276e+10 L⁻¹
Basophils [9]: 0.0%
Eosinophils [9]: 1.6%
HB, Hemoglobin [9]: 165 g/L
HCT, Hematocrit [9]: 0.45
Lymphocytes [9]: 88.8%
MCH, Mean corpuscular hemoglobin [9]: 22.9 pg
MCHC, Mean corpuscular hemoglobin concentration [9]: 368 g/L
MCV, Mean corpuscular volume [9]: 62.2 fL
MPV, Mean platelet volume [9]: 6.74 fL
Monocytes [9]: 1.4%
Neutrophils [9]: 8.2%
PDW, Platelet distribution width [9]: 7.32 fL
PLT, Platelet count [9]: 8.47e+11 L⁻¹
RBC, Red cell count [9]: 7.22e+12 L⁻¹
WBC, Leukocyte total count [9]: 1.544e+10 L⁻¹
Basophils [10]: 0.0%
Eosinophils [10]: 0.8%
HB, Hemoglobin [10]: 169 g/L
HCT, Hematocrit [10]: 0.46
Lymphocytes [10]: 90.8%
MCH, Mean corpuscular hemoglobin [10]: 22.8 pg
MCHC, Mean corpuscular hemoglobin concentration [10]: 370 g/L
MCV, Mean corpuscular volume [10]: 61.6 fL
MPV, Mean platelet volume [10]: 6.72 fL
Monocytes [10]: 1.4%
Neutrophils [10]: 7.0%
PDW, Platelet distribution width [10]: 7.14 fL
PLT, Platelet count [10]: 8.74e+11 L⁻¹
RBC, Red cell count [10]: 7.4e+12 L⁻¹
WBC, Leukocyte total count [10]: 1.654e+10 L⁻¹
Basophils [11]: 0.0%
Eosinophils [11]: 1.2%
HB, Hemoglobin [11]: 166 g/L
HCT, Hematocrit [11]: 0.45
Lymphocytes [11]: 90.6%
MCH, Mean corpuscular hemoglobin [11]: 23.1 pg
MCHC, Mean corpuscular hemoglobin concentration [11]: 371 g/L
MCV, Mean corpuscular volume [11]: 62.2 fL
MPV, Mean platelet volume [11]: 6.98 fL
Monocytes [11]: 2.2%
Neutrophils [11]: 6.0%
PDW, Platelet distribution width [11]: 7.58 fL
PLT, Platelet count [11]: 8.2e+11 L⁻¹
RBC, Red cell count [11]: 7.19e+12 L⁻¹
WBC, Leukocyte total count [11]: 1.448e+10 L⁻¹
Basophils [12]: 0.0%
Eosinophils [12]: 1.2%
Lymphocytes [12]: 89.8%
MCH, Mean corpuscular hemoglobin [12]: 23.1 pg
MCHC, Mean corpuscular hemoglobin concentration [12]: 366 g/L
MCV, Mean corpuscular volume [12]: 63.2 fL
MPV, Mean platelet volume [12]: 6.74 fL
Monocytes [12]: 3.2%
Neutrophils [12]: 5.8%
PDW, Platelet distribution width [12]: 7.26 fL
PLT, Platelet count [12]: 8.69e+11 L⁻¹
WBC, Leukocyte total count [12]: 1.392e+10 L⁻¹
HB, Hemoglobin [13]: 154 g/L
RBC, Red cell count [13]: 6.66e+12 L⁻¹
HCT, Hematocrit (females, total dose 1000 mg/kg bw, N=5, p<0.05 vs. control): 0.42
Basophils [14]: 0.0%
Eosinophils [14]: 1.0%
Lymphocytes [14]: 87.6%
MCH, Mean corpuscular hemoglobin [14]: 23.3 pg
MCHC, Mean corpuscular hemoglobin concentration [14]: 366 g/L
MCV, Mean corpuscular volume [14]: 63.7 fL
MPV, Mean platelet volume [14]: 6.68 fL
Monocytes [14]: 2.2%
Neutrophils [14]: 9.2%
PDW, Platelet distribution width [14]: 7.18 fL
PLT, Platelet count [14]: 8.28e+11 L⁻¹
WBC, Leukocyte total count [14]: 1.35e+10 L⁻¹
HB, Hemoglobin (females, total dose 1700 mg/kg bw, N=5, p<0.001 vs. control): 150 g/L
